This experiment deals with T1, human CCR7 (Homo sapiens, UniProt P32248).
T1 construct: expressed in transfected cells
T1 sequence (P32248 25-378): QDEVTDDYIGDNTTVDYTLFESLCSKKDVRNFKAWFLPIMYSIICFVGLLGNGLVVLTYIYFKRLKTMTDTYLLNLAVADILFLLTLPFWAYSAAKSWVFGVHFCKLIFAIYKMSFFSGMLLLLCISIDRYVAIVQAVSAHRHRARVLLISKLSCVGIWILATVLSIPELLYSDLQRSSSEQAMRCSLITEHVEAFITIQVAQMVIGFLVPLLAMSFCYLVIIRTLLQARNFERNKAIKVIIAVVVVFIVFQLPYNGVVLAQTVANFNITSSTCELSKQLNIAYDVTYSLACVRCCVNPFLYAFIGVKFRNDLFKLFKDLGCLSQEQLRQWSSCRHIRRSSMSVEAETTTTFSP
The experiment can be described thus: CCL19-induced calcium mobilization assay, U87.CD4 cells expressing CCR7. It counts as cell-based. Particulars: for IC50: CCL19 induced calcium signaling, read-out: IC50 [μM] block CCL19 induced calcium signaling; for Decoy – 0 Active – 1: classification as decoy or active on CCR7. An outline of the steps: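 Calcium mobilization was recorded in U87.CD4 cells stably carrying human CXCR2 (stimulated with CXCL8), CCR7 (stimulated with CCL19) or CCR5. Cells were plated at 20,000 cells/well, cultured overnight at 37°C in 5% CO2, and incubated 45 min at room temperature in the dark before reading.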

Take `Cc1cc(C)cc(Nc2c(-c3cccc(O)c3)nc3ncccn23)c1` [C182, Cc1cc(C)cc(Nc2c(-c3cccc(O)c3)nc3ncccn23)c1]: the IC50 was > 50 µM and the “Decoy – 0 Active – 1” value was 0.
In the case of `O=C(Nc1ccc(Cl)cc1Cl)N1CC(O)C(F)C1` (stereo not drawn) [C183, O=C(Nc1ccc(Cl)cc1Cl)N1CC(O)C(F)C1], the IC50 is > 50 µM and the “Decoy – 0 Active – 1” value is 0.
Consider `O=C(Nc1ccc(Cl)cc1Cl)NC(Cc1ccc(O)cc1)C(=O)O` (stereo not drawn) [C184, O=C(Nc1ccc(Cl)cc1Cl)NC(Cc1ccc(O)cc1)C(=O)[O-]], for which the IC50 is > 50 µM and the “Decoy – 0 Active – 1” value came out at 0.
With `O=C(O)c1ccc(CNC(=O)C2(c3ccc(Cl)cc3)CCC2)o1` [C185, O=C([O-])c1ccc(CNC(=O)C2(c3ccc(Cl)cc3)CCC2)o1], the IC50 was > 50 µM and the “Decoy – 0 Active – 1” value is listed as 0.
On to `Cc1ccc(N2C(=O)C3C(C(=O)O)NC(c4ccccc4O)C3C2=O)cc1` (stereo not drawn) [C186, Cc1ccc(N2C(=O)C3C(C(=O)[O-])[NH2+]C(c4ccccc4O)C3C2=O)cc1], for which the IC50 is > 50 µM and the “Decoy – 0 Active – 1” value is recorded as 0.
With `Cc1cccc(-c2cccc(C(=O)N3CC(O)CC3C(=O)O)c2)c1` (stereo not drawn) [C187, Cc1cccc(-c2cccc(C(=O)N3CC(O)CC3C(=O)[O-])c2)c1], the IC50 is > 50 µM and the “Decoy – 0 Active – 1” value amounted to 0.
In the case of `COc1cccc(N2CC(NC(=O)c3cccc4ccccc34)CC2=O)c1` (stereo not drawn) [C188, COc1cccc(N2CC(NC(=O)c3cccc4ccccc34)CC2=O)c1], the IC50 was > 50 µM and the “Decoy – 0 Active – 1” value is given as 0.
`O=c1oc2ccccc2n1CCCN1CCCC1c1ccc(O)cc1` (stereo not drawn) [C189, O=c1oc2ccccc2n1CCC[NH+]1CCCC1c1ccc(O)cc1]: the IC50 was > 50 µM and the “Decoy – 0 Active – 1” value was 0.
For the compound `O=C(O)c1nc[nH]c1C(=O)NC(c1ccccc1)c1ccco1` (stereo not drawn) [C190, O=C([O-])c1nc[nH]c1C(=O)NC(c1ccccc1)c1ccco1], the concentration for half-maximal inhibition (IC50) was > 50 µM and the “Decoy – 0 Active – 1” value turned out to be 0.
Consider `CC(C)C(CO)NC(=O)NC(c1cccc(F)c1F)C(F)(F)F` (stereo not drawn) [C191, CC(C)C(CO)NC(=O)NC(c1cccc(F)c1F)C(F)(F)F], for which the IC50 is > 50 µM and the “Decoy – 0 Active – 1” value turned out to be 0.
As for `COc1ccc(CC(C)(O)CNC(=O)NCc2cccc3ccccc23)cc1` (stereo not drawn) [C192, COc1ccc(CC(C)(O)CNC(=O)NCc2cccc3ccccc23)cc1], the IC50 was > 50 µM and the “Decoy – 0 Active – 1” value was 0.
For `CC(=O)N1CCCCC1CC(=O)NC1(C)CCc2ccccc2C1` (stereo not drawn) [C193, CC(=O)N1CCCCC1CC(=O)NC1(C)CCc2ccccc2C1], the IC50 is > 50 µM and the “Decoy – 0 Active – 1” value is on record as 0.
Turning to `Cn1c(C2CC(=O)N(c3cccc(C(F)(F)F)c3)C2)nc2ccccc21` (stereo not drawn) [C194, Cn1c(C2CC(=O)N(c3cccc(C(F)(F)F)c3)C2)nc2ccccc21], the IC50 is > 50 µM and the “Decoy – 0 Active – 1” value is 0.
The corresponding values for `O=C(NCC1(c2cccc(F)c2)CCCCC1)c1n[nH]c(=O)[nH]1` [C195, O=C(NCC1(c2cccc(F)c2)CCCCC1)c1n[nH]c(=O)[nH]1] are > 50 µM and 0.
For `Cc1ccn(C)c(=O)c1NC(=O)NC1CCCc2ccc(Cl)cc21` (stereo not drawn) [C196, Cc1ccn(C)c(=O)c1NC(=O)NC1CCCc2ccc(Cl)cc21], the IC50 was > 50 µM and the “Decoy – 0 Active – 1” value came out at 0.
Take `O=C(NC1CC(C(=O)O)c2ccccc21)C1CCCN(C(=O)N2CCCC2)C1` (stereo not drawn) [C197, O=C(NC1CC(C(=O)[O-])c2ccccc21)C1CCCN(C(=O)N2CCCC2)C1]: the IC50 was > 50 µM and the “Decoy – 0 Active – 1” value came to 0.
For `O=C1CC(NC(=O)N2CCCC2c2ccccc2)CN1c1ccccc1` (stereo not drawn) [C198, O=C1CC(NC(=O)N2CCCC2c2ccccc2)CN1c1ccccc1], the IC50 is > 50 µM and the “Decoy – 0 Active – 1” value amounted to 0.
The corresponding values for `O=C(O)CN1C(=O)NC2(CCCc3ccccc32)C1=O` (stereo not drawn) [C199, O=C([O-])CN1C(=O)NC2(CCCc3ccccc32)C1=O] are > 50 µM and 0.
The corresponding values for `CCc1ccc(C(NC(=O)NC2C=CC(CO)C2)C(C)(C)C)o1` (stereo not drawn) [C200, CCc1ccc(C(NC(=O)NC2C=CC(CO)C2)C(C)(C)C)o1] are > 50 µM and 0.
With `O=C(NCc1ccccc1N1CCOCC1)c1nc2ccccc2c(=O)[nH]1` [C201, O=C(NCc1ccccc1N1CCOCC1)c1nc2ccccc2c(=O)[nH]1], the IC50 is > 50 µM and the “Decoy – 0 Active – 1” value is listed as 0.
For the compound `O=C(NC1CCCCNC1=O)NC1CCSc2ccccc21` (stereo not drawn) [C202, O=C(NC1CCCCNC1=O)NC1CCSc2ccccc21], the IC50 was > 50 µM and the “Decoy – 0 Active – 1” value came out at 0.
Consider `CCc1cc(C(=O)NCC(O)c2ccc(O)cc2)cc(=O)[nH]1` (stereo not drawn) [C203, CCc1cc(C(=O)NCC(O)c2ccc(O)cc2)cc(=O)[nH]1], for which the IC50 was > 50 µM and the “Decoy – 0 Active – 1” value was determined as 0.
Regarding `O=C1CCC(C(=O)NC(c2ccc(F)cc2)C(F)(F)F)N1` (stereo not drawn) [C204, O=C1CCC(C(=O)NC(c2ccc(F)cc2)C(F)(F)F)N1], the IC50 is > 50 µM and the “Decoy – 0 Active – 1” value is 0.
For `Cc1c(C(=O)NC2CC2c2ccc(F)cc2F)[nH]c2c1C(=O)CCC2` (stereo not drawn) [C205, Cc1c(C(=O)NC2CC2c2ccc(F)cc2F)[nH]c2c1C(=O)CCC2], in that order: > 50 µM and 0.
As for `Cc1ccc2c(CCNc3nc4[nH]ncc4c(=O)[nH]3)cn(C)c2c1` [C206, Cc1ccc2c(CCNc3nc4[nH]ncc4c(=O)[nH]3)cn(C)c2c1], the IC50 is > 50 µM and the “Decoy – 0 Active – 1” value was determined as 0.
Regarding `CCCC1(C(=O)O)CCN(C(=O)c2cccc(C)c2OC)CC1O` (stereo not drawn) [C207, CCCC1(C(=O)[O-])CCN(C(=O)c2cccc(C)c2OC)CC1O], the concentration for half-maximal inhibition (IC50) is > 50 µM and the “Decoy – 0 Active – 1” value was found to be 0.
With `O=C(NCC(O)(c1ccccc1)C(F)(F)F)c1cc(=O)c2ccccc2o1` (stereo not drawn) [C208, O=C(NCC(O)(c1ccccc1)C(F)(F)F)c1cc(=O)c2ccccc2o1], the IC50 is > 50 µM and the “Decoy – 0 Active – 1” value is 0.
In the case of `O=C(CCCc1c[nH]c2ccccc12)N1CCN(C(=O)CCCc2c[nH]c3ccccc23)CC1` [C209, O=C(CCCc1c[nH]c2ccccc12)N1CCN(C(=O)CCCc2c[nH]c3ccccc23)CC1], the IC50 was > 50 µM and the “Decoy – 0 Active – 1” value came out at 0.
On to `CC(C)(C(=O)NC1CCC(C(=O)O)C1)c1cccc(F)c1` (stereo not drawn) [C210, CC(C)(C(=O)NC1CCC(C(=O)[O-])C1)c1cccc(F)c1], for which the IC50 was > 50 µM and the “Decoy – 0 Active – 1” value was found to be 0.
As to `Cc1ccc(C(=O)NC2CCC(=O)NC2C)cc1N1CCOCC1` (stereo not drawn) [C211, Cc1ccc(C(=O)NC2CCC(=O)NC2C)cc1N1CCOCC1], the IC50 was > 50 µM and the “Decoy – 0 Active – 1” value stood at 0.
In the case of `CC(=O)N1CCC2(CC1)CC(C(=O)O)N(C(=O)c1ccc(C)c3ccccc13)C2` (stereo not drawn) [C212, CC(=O)N1CCC2(CC1)CC(C(=O)[O-])N(C(=O)c1ccc(C)c3ccccc13)C2], the IC50 was > 50 µM and the “Decoy – 0 Active – 1” value was 0.
As for `COc1c[nH]c(C(=O)NC(c2cccnc2)C(F)(F)F)cc1=O` (stereo not drawn) [C213, COc1c[nH]c(C(=O)NC(c2cccnc2)C(F)(F)F)cc1=O], the IC50 was > 50 µM and the “Decoy – 0 Active – 1” value is given as 0.
As for `NC(=O)CN1CC(CCN2CCCC2=O)c2ccccc21` (stereo not drawn) [C214, NC(=O)CN1CC(CCN2CCCC2=O)c2ccccc21], the IC50 is > 50 µM and the “Decoy – 0 Active – 1” value is listed as 0.
For `O=C(NCc1cccnc1-n1ccnc1)c1cc2ccccc2c(=O)[nH]1` [C215, O=C(NCc1cccnc1-n1ccnc1)c1cc2ccccc2c(=O)[nH]1], the IC50 was > 50 µM and the “Decoy – 0 Active – 1” value is recorded as 0.
The corresponding values for `O=C(CCC1(C(=O)O)CCC(=O)NC1)NCc1ccccc1` (stereo not drawn) [C216, O=C(CCC1(C(=O)[O-])CCC(=O)NC1)NCc1ccccc1] are > 50 µM and 0.
In the case of `Cc1ccccc1C(O)CNC(=O)NCCc1cccc(C(N)=O)c1` (stereo not drawn) [C217, Cc1ccccc1C(O)CNC(=O)NCCc1cccc(C(N)=O)c1], the IC50 is > 50 µM and the “Decoy – 0 Active – 1” value stood at 0.
Consider `COc1ccc2c(c1)CCCN2C(=O)C1CC(=O)N(c2ccc3c(c2)OCCO3)C1` (stereo not drawn) [C218, COc1ccc2c(c1)CCCN2C(=O)C1CC(=O)N(c2ccc3c(c2)OCCO3)C1], for which the IC50 was > 50 µM and the “Decoy – 0 Active – 1” value is on record as 0.
In the case of `O=c1[nH]c(NCC(O)c2ccc3ccccc3c2)nc2ccccc12` (stereo not drawn) [C219, O=c1[nH]c(NCC(O)c2ccc3ccccc3c2)nc2ccccc12], the IC50 is > 50 µM and the “Decoy – 0 Active – 1” value is 0.
On to `Cc1cccc(C2(C(=O)NC3CCC(=O)N(C)C3)CCCC2)c1` (stereo not drawn) [C220, Cc1cccc(C2(C(=O)NC3CCC(=O)N(C)C3)CCCC2)c1], for which the IC50 was > 50 µM and the “Decoy – 0 Active – 1” value is on record as 0.
Turning to `CC1CCc2ccccc2C1NC(=O)CCC(=O)N1CCC(O)CC1` (stereo not drawn) [C221, CC1CCc2ccccc2C1NC(=O)CCC(=O)N1CCC(O)CC1], the IC50 is > 50 µM and the “Decoy – 0 Active – 1” value is 0.
The corresponding values for `CC1CCc2c(F)cccc2C1NC(=O)c1n[nH]c(=O)[nH]1` (stereo not drawn) [C222, CC1CCc2c(F)cccc2C1NC(=O)c1n[nH]c(=O)[nH]1] are > 50 µM and 0.
As for `Cc1nccn1-c1ccccc1CNC(=O)CC1NC(=O)c2ccccc21` (stereo not drawn) [C223, Cc1nccn1-c1ccccc1CNC(=O)CC1NC(=O)c2ccccc21], the IC50 is > 50 µM and the “Decoy – 0 Active – 1” value worked out at 0.

For the origin of these results see PMC8972196, “A Set of Experimentally Validated Decoys for the Human CC Chemokine Receptor 7 (CCR7) Obtained by Virtual Screening” (Frontiers in Pharmacology, 2022).
